Each structure is given as a SMILES string. Values after ≈ are worked out from the molar mass of the structure shown.

Experiment [1] has as its system Cryptolestes ferrugineus. Nature of the experiment: Insecticidal activity against phosphine-weakly resistant Cryptolestes ferrugineus (rusty grain beetle) Lab-WR after 72 hr by FAO method.
Experiment [2] has as its system Cryptolestes ferrugineus. Nature of the experiment: Insecticidal activity against phosphine-weakly resistant Cryptolestes ferrugineus (rusty grain beetle) Lab-WR after 48 hr by FAO method.
In experiment [3] the test system is Cryptolestes ferrugineus. Nature of the experiment: Insecticidal activity against Cryptolestes ferrugineus (rusty grain beetle) Lab-S after 72 hr by FAO method.
The test system of experiment [4] is Cryptolestes ferrugineus. Nature of the experiment: Insecticidal activity against Cryptolestes ferrugineus (rusty grain beetle) Lab-S after 48 hr by FAO method.
Experiment [5] deals with Cryptolestes ferrugineus. Description: Insecticidal activity against phosphine-resistant Cryptolestes ferrugineus (rusty grain beetle) Lab-StR after 72 hr by FAO method.
The subject of experiment [6] is Cryptolestes ferrugineus. Nature of the experiment: Insecticidal activity against phosphine-resistant Cryptolestes ferrugineus (rusty grain beetle) Lab-StR after 48 hr by FAO method.
Experiment [7] has as its system Cryptolestes ferrugineus. Nature of the experiment: whole plant or invertebrate. The conditions noted are these: QQCF691, 144 h.
Description: Insecticidal activity against strongly phosphine-resistant Cryptolestes ferrugineus (rusty grain beetle) QQCF691 after 144 hr by FAO method
In experiment [8] the test system is Cryptolestes ferrugineus. Description: whole plant or invertebrate. The conditions noted are these: QNCF134, 144 h.
Description: Insecticidal activity against strongly phosphine-resistant Cryptolestes ferrugineus (rusty grain beetle) QNCF134 after 144 hr by FAO method
Experiment [9] concerns Cryptolestes ferrugineus. Description: whole plant or invertebrate. The conditions noted are these: QNCF130, 144 h.
Description: Insecticidal activity against strongly phosphine-resistant Cryptolestes ferrugineus (rusty grain beetle) QNCF130 after 144 hr by FAO method
Experiment [10] deals with Cryptolestes ferrugineus. Nature of the experiment: whole plant or invertebrate. To be noted: QNCF129, 144 h.
Description: Insecticidal activity against strongly phosphine-resistant Cryptolestes ferrugineus (rusty grain beetle) QNCF129 after 144 hr by FAO method
Experiment [11] concerns Cryptolestes ferrugineus. Nature of the experiment: whole plant or invertebrate. The conditions noted are these: QNCF122, 144 h.
Description: Insecticidal activity against strongly phosphine-resistant Cryptolestes ferrugineus (rusty grain beetle) QNCF122 after 144 hr by FAO method
In experiment [12] the test system is Cryptolestes ferrugineus. Description: whole plant or invertebrate. To be noted: QNCF110, 144 h.
Description: Insecticidal activity against strongly phosphine-resistant Cryptolestes ferrugineus (rusty grain beetle) QNCF110 after 144 hr by FAO method
Experiment [13] has as its system Cryptolestes ferrugineus. Description: whole plant or invertebrate. The conditions noted are these: QNCF104, 144 h.
Description: Insecticidal activity against strongly phosphine-resistant Cryptolestes ferrugineus (rusty grain beetle) QNCF104 after 144 hr by FAO method
Experiment [14] has as its system Cryptolestes ferrugineus. Description: whole plant or invertebrate. To be noted: QNCF102, 144 h.
Description: Insecticidal activity against strongly phosphine-resistant Cryptolestes ferrugineus (rusty grain beetle) QNCF102 after 144 hr by FAO method
Experiment [15] has as its system Cryptolestes ferrugineus. Description: whole plant or invertebrate. To be noted: QNCF101, 144 h.
Description: Insecticidal activity against strongly phosphine-resistant Cryptolestes ferrugineus (rusty grain beetle) QNCF101 after 144 hr by FAO method
Experiment [16] relates to Cryptolestes ferrugineus. Description: whole plant or invertebrate. To be noted: QNCF83, 144 h.
Description: Insecticidal activity against strongly phosphine-resistant Cryptolestes ferrugineus (rusty grain beetle) QNCF83 after 144 hr by FAO method
Experiment [17] relates to Cryptolestes ferrugineus. Description: whole plant or invertebrate. To be noted: Lab-WR, 144 h.
Description: Insecticidal activity against phosphine-weakly resistant Cryptolestes ferrugineus (rusty grain beetle) Lab-WR after 144 hr by FAO method
Experiment [18] relates to Cryptolestes ferrugineus. Nature of the experiment: whole plant or invertebrate. To be noted: Lab-StR, 144 h.
Description: Insecticidal activity against phosphine-resistant Cryptolestes ferrugineus (rusty grain beetle) Lab-StR after 144 hr by FAO method
Experiment [19] relates to Cryptolestes ferrugineus. Nature of the experiment: whole plant or invertebrate. To be noted: Lab-S, 144 h.
Description: Insecticidal activity against Cryptolestes ferrugineus (rusty grain beetle) Lab-S after 144 hr by FAO method

For the compound `P` [PHOSPHINE], the 50% lethal concentration (LC50) in the experiment on Cryptolestes ferrugineus [1] was 0.037 µg/mL (≈ 1.09 µM); in the experiment with Cryptolestes ferrugineus [2], 0.056 µg/mL (≈ 1.65 µM); in the experiment with Cryptolestes ferrugineus [3], 0.004 µg/mL (≈ 0.118 µM); in the experiment on Cryptolestes ferrugineus [4], 0.005 µg/mL (≈ 0.147 µM); in the experiment with Cryptolestes ferrugineus [5] it was 6.37 µg/mL (≈ 187 µM); in the experiment with Cryptolestes ferrugineus [6], 6.57 µg/mL (≈ 193 µM). The LC50 in the experiment with Cryptolestes ferrugineus [7] amounted to 1.34 µg/mL (≈ 39.4 µM); in the experiment on Cryptolestes ferrugineus [8] it was 1.22 µg/mL (≈ 35.9 µM); with Cryptolestes ferrugineus [9] it was 1.42 µg/mL (≈ 41.8 µM); in the experiment on Cryptolestes ferrugineus [10], 1.5 µg/mL (≈ 44.1 µM); with Cryptolestes ferrugineus [11], 1.77 µg/mL (≈ 52.1 µM); in the experiment with Cryptolestes ferrugineus [12], 0.97 µg/mL (≈ 28.5 µM). The LC50 amounted to 1.21 µg/mL (≈ 35.6 µM) in the experiment on Cryptolestes ferrugineus [13]; 1.31 µg/mL (≈ 38.5 µM) in the experiment on Cryptolestes ferrugineus [14]; 1.12 µg/mL (≈ 32.9 µM) with Cryptolestes ferrugineus [15]; 1.3 µg/mL (≈ 38.2 µM) with Cryptolestes ferrugineus [16]; 0.022 µg/mL (≈ 0.647 µM) in the experiment with Cryptolestes ferrugineus [17]; 1.66 µg/mL (≈ 48.8 µM) in the experiment on Cryptolestes ferrugineus [18]. The LC50 with Cryptolestes ferrugineus [19] amounted to 0.003 µg/mL (≈ 0.0882 µM).

Broadly, the LC50 is the concentration lethal to half of the exposed cells or organisms. A low value points to a more lethal substance.

Values taken from ChEMBL document CHEMBL3046191, “Strong resistance to phosphine in the rusty grain beetle, Cryptolestes ferrugineus (Stephens) (Coleoptera: Laemophloeidae): its characterisation, a rapid assay for diagnosis and its distribution in Australia” (2013).
